The subject of series [1] is LEWIS LUNG cells. Description: sulforhodamine B cytotoxicity assay, 72 hour drug exposure, Lewis lung. It counts as cell-based.
Series [2] has as its system RPMI 7666 cells. Description: sulforhodamine B cytotoxicity assay, 72 hour drug exposure, RPMI 7666. It counts as cell-based. The procedure: (§1) These studies were performed using a sulforrhodamine B assay (see Monks et al., J. Natl. Cancer Inst. (U.S.) 83:757 ([…])). Compounds were dissolved in ethanol. Results from these studies, presented in the following tables, are expressed as Gl50 values, that is, concentration of a drug (micromolar) required to inhibit growth of fifty percent of the cells.
On the technique in general: Sulforhodamine B stains cellular protein and so reports cell mass.

Series [3] relates to A549 cells. Description: in vitro sensitivity at different drug exposure times, A549. It counts as cell-based. The conditions noted are these: Homo sapiens. The procedure:
as §1

The subject of series [4] is MCF 7/ADR cells. Description: in vitro sensitivity at different drug exposure times, MCF 7/ADR. The series is classed as cell-based. Conditions: Homo sapiens, NCI/ADR-RES. The procedure:
as §1

Series [5] concerns A549 cells. Description: sulforhodamine B cytotoxicity assay, 72 hour drug exposure, A549. The series is classed as cell-based.
The subject of series [6] is U937 cells. Description: sulforhodamine B cytotoxicity assay, 72 hour drug exposure, U937. The series is classed as cell-based. Conditions: Homo sapiens, U-937. The method, then:
as §1

Series [7] concerns MCF7 cells. Description: sulforhodamine B cytotoxicity assay, 72 hour drug exposure, MCF7. The series is classed as cell-based.
In series [8] the test system is MCF7/ADR cells. Description: sulforhodamine B cytotoxicity assay, 72 hour drug exposure, MCF7/ADR. The series is classed as cell-based.
Series [9] relates to CAKI 1 cells. Description: sulforhodamine B cytotoxicity assay, 72 hour drug exposure, CAKI 1. The series is classed as cell-based.
In series [10] the test system is SKMEL 28 cells. Description: sulforhodamine B cytotoxicity assay, 72 hour drug exposure, SKMEL 28. The series is classed as cell-based.
In series [11] the test system is OVCAR 3 cells. Description: sulforhodamine B cytotoxicity assay, 72 hour drug exposure, OVCAR 3. The series is classed as cell-based.
Series [12] concerns HT 29 cells. Description: sulforhodamine B cytotoxicity assay, 72 hour drug exposure, HT 29. The series is classed as cell-based.
For series [13], the system named is C3H10T1/2 cells. Description: sulforhodamine B cytotoxicity assay, 72 hour drug exposure, C3H10T1/2. The series is classed as cell-based. Conditions: Mus musculus, C3H 10T1/2. The method, then: as §1
Series [14] concerns mice. Description: in vivo toxicity after i.v. injection in mice.
For series [15], the system named is P388 cells. Description: sulforhodamine B cytotoxicity assay, 72 hour drug exposure, P388. The series is classed as cell-based. Conditions: Mus musculus. The method, then: as §1
In series [16] the test system is P388/ADR cells. Description: sulforhodamine B cytotoxicity assay, 72 hour drug exposure, P388/ADR. It counts as cell-based. The conditions noted are these: Mus musculus. The method, then:
as §1

[17] abbreviates: Homo sapiens, NCI/ADR-RES, 72 h.

Where a name gives a salt, the structure may show the parent alone.

The values below come from US5631394A, “Pharmaceutically active ceramide-related compounds” (The Liposome Company, Inc., priority 1995, dated 1997).

By GI50 is commonly meant the concentration at which growth is held to half of that of the control. On to `CCCCCCCCCCCCC/C=C/[C@@H](O)[C@H](COC(C)=O)NC(=O)CCCCC` [1-Acetate C6-Ceramide, 1-acetate, C6-ceramide], for which the GI50 in series [1] (Lewis lung carcinoma, 72 h) was 8.5 ± 0.4 µM; in [2] it was 9 ± 2 µM; in series [3] (1 hour pulse), 92.9 ± 1.3 µM; in series [3] (4 hour pulse), 44.1 ± 1.3 µM; in [3] (8 hour pulse), 35.3 ± 2.5 µM; in series [3] (24 hour pulse), 7.2 ± 0.2 µM. For the same compound, the GI50 in series [3] (48 hour pulse) is 4.35 ± 0.1 µM; in series [3] (72 hour continuous exposure), 5.1 ± 0.1 µM; in [4] (1 hour pulse), greater than 100 µM; in series [4] (4 hour pulse), 59.5 ± 1.4 µM; in series [4] (8 hour pulse), 42.7 ± 1.2 µM; in [4] (24 hour pulse), 19.5 ± 0.8 µM. Besides, the 50% growth inhibitory concentration (GI50) is 15.6 ± 0.9 µM in [4] (48 hour pulse); 16.7 ± 1.7 µM in [4] (72 hour continuous exposure); 12.7 ± 7.6 µM in [5] (Homo sapiens, A549, 72 h); 11.3 ± 1 µM in series [6].
On to `CCCCCCCCCCCCC/C=C/[C@@H](O[Si](C)(C)C(C)(C)C)[C@H](CO[Si](C)(C)C(C)(C)C)NC(=O)CCCCC` [1,3-DiTBDMS C6-Ceramide, 1,3 DiTBDMS C6 Cer], for which the 50% growth inhibitory concentration (GI50) was greater than 200 µM in series [1] (Lewis lung carcinoma), greater than 200 µM in [2], greater than 200 µM in [5] (Homo sapiens) and 134 ± 28.8 µM in series [6].
For `CCCCCCCCCCCCC/C=C/[C@@H](OC(C)=O)[C@H](COC(C)=O)NC(=O)CCCCC` [1,3-Diacetate C6-Ceramide], the GI50 in [7] (Homo sapiens, MCF7, 72 h) stood at 15.5 ± 0.2 µM; in [1] (Lewis lung carcinoma, 72 h) it was 4.9 ± 0.5 µM; in series [8] (setting [17]), 42.9 ± 3.6 µM; in series [5] (Homo sapiens, A549, 72 h) it was 6.1 ± 1.1 µM.
Take `CCCCCCCCCCCCC/C=C/[C@@H](O)[C@H](CO)NCCCCCCCC` [N-C8 Sphingosine HCl Salt]: the GI50 came out at 4.9 ± 0.02 µM in series [7] (HCl Salt); 4.82 ± 0.18 µM in [1] (HCl Salt); 4.47 ± 0.01 µM in series [9] (HCl Salt); 4.82 ± 0.18 µM in series [8] (HCl Salt); 4.97 ± 0.19 µM in [5] (HCl Salt); 4.95 ± 0.02 µM in series [10] (HCl Salt). For the same compound, the GI50 is 5.23 ± 0.01 µM in series [11] (HCl Salt) and 5.78 µM in series [12] (HCl Salt).
Turning to `CCCCCCCCCCCCC/C=C/[C@@H](O)[C@@H](N)CO` [Sphingosine, reference compound], the GI50 worked out at 20.4 ± 0.4 µM in series [7] (Homo sapiens); 12.2 ± 0.1 µM in series [1] (Lewis lung carcinoma); 39.7 ± 0.8 µM in series [9] (Homo sapiens); 19.8 µM in series [8] (Homo sapiens, NCI/ADR-RES); 20.2 ± 0.8 µM in [5] (Homo sapiens); 15.6 ± 1 µM in series [10] (Homo sapiens, SK-MEL-28). Further, the GI50 in series [11] (Homo sapiens) was determined as 44.6 ± 0.9 µM; in series [12] (Homo sapiens), 19.3 ± 0.1 µM.
For `CCCCCCCCCCCCC/C=C/[C@@H](OC(=O)CCC)[C@H](CO[Si](C)(C)C(C)(C)C)NC(=O)CCCCC` [1-TBDMS-3-Butyrate C6-Cer, 1-TBDMS,3-butyrate, C6-Cer], the GI50 in series [1] (Lewis lung carcinoma), in [13], in [2], in series [5] (Homo sapiens) and in [6] was greater than 200 µM in each case.
Take `CCCCCCCCCCCCC/C=C/[C@@H](O)[C@H](CO)NCCCCCCCCCC`: the GI50 was 5.13 ± 0.01 µM in series [7] (Homo sapiens, MCF7, 72 h); 6.71 ± 1.04 µM in series [1] (Lewis lung carcinoma, 72 h); 6.18 ± 0.01 µM in [9] (Homo sapiens, CAKI-1, 72 h); 6.19 ± 0.43 µM in series [8] (setting [17]); 4.99 ± 0.08 µM in series [5] (Homo sapiens, A549, 72 h); 13 µM in series [10] (Homo sapiens, SK-MEL-28, 72 h). Also, the GI50 in series [11] (Homo sapiens, OVCAR-3, 72 h) is 12.5 ± 0.85 µM; in series [12] (Homo sapiens, HT-29, 72 h) it was 14.5 ± 0.14 µM.
Consider `CCCCCCCCCCCCC/C=C/[C@@H](O)[C@H](CO)NCCCCCC` [N-Hexyl Sphingosine, n-hexyl sphingosine], for which the “Number of Animals Dead” value is recorded as 0/2 in series [14] (12.5 mg/kg), 0/2 in series [14] (25 mg/kg), 0/2 in series [14] (50 mg/kg) and 2/2 in series [14] (100 mg/kg). In addition, the GI50 stood at 4.8 ± 0.1 µM in series [7] (Homo sapiens, MCF7, 72 h); 4.74 ± 0.09 µM in series [7] (listed as N-C6 Sphingosine); 4.9 ± 0.1 µM in [1] (Lewis lung carcinoma, 72 h); 4.61 ± 0.04 µM in series [1] (listed as N-C6 Sphingosine); 6.84 ± 3.62 µM in [9] (Homo sapiens, CAKI-1, 72 h); 4.28 ± 0.04 µM in series [9] (listed as N-C6 Sphingosine). The concentration for 50% growth inhibition (GI50) was 2.59 ± 0.3 µM in series [15]; 2.61 ± 1.7 µM in [16]; 5.57 ± 1.17 µM in series [8] (setting [17]); 4.69 ± 0.1 µM in [8] (listed as N-C6 Sphingosine); 4.9 ± 0.1 µM in [5] (Homo sapiens, A549, 72 h); 4.94 ± 0.66 µM in series [10] (Homo sapiens, SK-MEL-28, 72 h). Moreover, the GI50 turned out to be 4.99 ± 0.05 µM in series [11] (Homo sapiens, OVCAR-3, 72 h); 5.2 ± 0.1 µM in series [12] (Homo sapiens, HT-29, 72 h); 5.03 ± 0.06 µM in series [12] (listed as N-C6 Sphingosine).
